Data on six compounds can be found in patent publication US20250332096A1, “BEVERAGE FORMULATION AND METHOD OF PROMOTING CELLULAR HYDRATION BY ENHANCING INTRACELLULAR PERMEATION” (Eastpond Laboratories Limited, priority 2024, published 2025).

The nature of series [1]: Water bonding detected by NIR spectroscopy. In kind it is physicochemical. As to conditions: for water-bond interactions, second-derivative NIR spectra: 0.1%-5% w/w. The method, then: Hydration bond energies in pure waters and solutions of the same waters containing cyclodextrin compounds were assayed using IR spectroscopy in the near and middle infrared ranges. To record linear signals throughout an entire wavelength range, attenuation from water absorbance was minimized with a short optical length cuvette. NIR range spectra were registered on a FOSS NIR Systems, Inc. 6500 spectrometer and Sample Transport Module (STM) using a 1 mm-sized cuvette. Transmission spectra were collected from 1100-2498 nm using a lead sulfide (PbS) detector and Vision 2.51 software (2001; FOSS NIRSystems, Inc.) A Perkin-Elmer Spectrum 400 FT-NIR/FT-IR spectrometer and UATR (Universal Attenuated Total Reflectance; ZnSe-diamond crystal, 1× flat top plate) sample handling unit were used to obtain spectra across 2500-15385 nm (reported as 4000-650 cm^1). Measurements were performed at 24 C using a triglycine-sulfate (TGS) detector and Spectrum ES 6.3.2 software (PerkinElmer, 2008). Three samples of water were used in the present study. A first water sample was purified by reverse osmosis, carbon filtration, ultraviolet light exposure, membrane filtration to 0.2 micron absolute, and ozonation. Second and third water samples were not purified. […] No. CYL-2322. • β-cyclodextrin (βCD also denoted as BCD). Lot. No. CYL-2518/2. • γ-cyclodextrin (γCD also denoted as GCD), Lot. No. […] No. […] No. CYL-2258. • carboxymethyl-β-cyclodextrin (CMBCD), Lot. No. CYL-2576. • quaternary-ammonium-β-cyclodextrin (QABCD).

In series [2] the test system is C. elegans. The experiment in a line: C. elegans longevity in hydration modified water (Example 5). In kind it is in vivo. Particulars: for Animals alive, % of initial: 0.1% w/w in nutritive media, USA I water; for effect on C. elegans survival: added to the culture media. The method, then:
C. elegans nematodes were grown in petri-type dishes containing normal nutrient liquid media prepared alternatively with USA I water (described in Example 2) lacking any further additive component (control) or the same water supplemented with a parent α-, β-, or γ-cyclodextrin, and/or a bioactive agent, as an active component of cellular hydration. Fifty ±3 worms were transferred to each dish. Each condition was repeated in triplicate. Experiments were repeated for USA II and BP I waters described in Example 2.
• A. Addition of parent α-, β- and γ-cyclodextrins. • B. Addition of L-arginine and nicotinamide. • C. Addition of inclusion complexes of cyclodextrins with L-arginine and nicotinamide.

The nature of series [3]: Water bonding detected by NIR spectroscopy. Particulars: wavelength region 900-1200 nm; 0.1%-5% w/w. The class given is physicochemical.
The subject of series [4] is Wheat seeds (Triticum aestivum). The experiment in a line: Wheat seed germination. The class given is in vivo. As to conditions: 0.5% w/w in USA I water. As to the method:
Wheat seeds (Triticum aestivum) were germinated using USA I, USA II, and BP I waters described for Example 2. Germination rate using un-supplemented (control) water was compared to that with the same water variously supplemented with a cyclodextrin component, and/or a bioactive agent, as an active component of cellular hydration. For each condition, ten seeds were placed in continuous water contact in a Petri-type dish kept at 25 C in 12 hr light/dark cycles. Photometric images were recorded on days 1 to 6 after seeding. The percentage of seeds germinated was calculated and compared as a function of time and of the applied additive concentrations.
Water samples for seed germination were used alone with no additive, or containing cyclodextrins, or containing clathrate inclusion complexes of cyclodextrin with L-arginine or with nicotinamide (both obtained from Sigma Chemical Co.; St. Louis, MO), or with L-carnitine (from Lonza AG; Switzerland). […] Additive solutions were prepared fresh on the day of germination start.
Parent cyclodextrins α-cyclodextrin (ACD), β-cyclodextrin (BCD), and γ-cyclodextrin (GCD), were obtained from Wacker Chemie (Munich, Germany). The following derivatized cyclodextrins were obtained from Cyclolab Ltd. (Budapest, Hungary): hydroxypropylated-beta-cyclodextrin (DS-3)(HPBCD), carboxymethylated-β-cyclodextrin (DS-3.5)(CMBCD), 2-hydroxy-3-N,N,N-trimethylamino)propyl-β-cyclodextrin chloride (DS-3.6)(QABCD).
Germination kinetics in control and additive-modified water under identical conditions were quantified as the percentage of the seeds having a sprout. Each determination consisted of 100 seeds for each parameter. Results are reported in Table 5, below, and in FIGS. 11-13. • A) Cyclodextrin/L-Arg Inclusion Complex Increases Seed Germination.

“2-hydroxy-3-N,N,N-trimethylamino)propyl-β-cyclodextrin chloride [Quaternary-ammonium-β-Cyclodextrin]”: the “water-bond interactions, second-derivative NIR spectra” value (shortened to “water-bond interactions”) is recorded as “significantly modified” in series [1] (1200-1500 nm), “significantly modified” in series [1] (1620-1710 nm), “further significantly modified” in series [1] (2170-2370 nm) and “significantly modified” in series [3]. The “modification of micro-structure of hydrogen bonded cluster systems in bulk water (spectral changes)” value in series [1] (comparison among cyclodextrin-treated water samples) is given as “largest”. Further, the “Animals alive, % of initial” value is 98 % of initial in series [2] (life span 10 days), 13 % of initial in series [2] (life span 15 days) and 2 % of initial in series [2] (life span 18 days).

As to `CC(O)COC[C@H]1O[C@@H]2O[C@H]3[C@H](O)[C@@H](O)[C@@H](O[C@H]4[C@H](O)[C@@H](O)[C@@H](O[C@H]5[C@H](O)[C@@H](O)[C@@H](O[C@H]6[C@H](O)[C@@H](O)[C@@H](O[C@H]7[C@H](O)[C@@H](O)[C@@H](O[C@H]8[C@H](O)[C@@H](O)[C@@H](O[C@H]1[C@H](O)[C@H]2O)O[C@@H]8COCC(C)O)O[C@@H]7COCC(C)O)O[C@@H]6COCC(C)O)O[C@@H]5COCC(C)O)O[C@@H]4COCC(C)O)O[C@@H]3COCC(C)O` (stereo partly drawn) [HP-β-Cyclodextrin, 2-hydroxypropyl-β-cyclodextrin], the “water-bond interactions” value is “significantly modified” in series [1] (1200-1500 nm), “significantly modified” in series [1] (1620-1710 nm), “significantly modified” in series [1] (2170-2370 nm) and “further significantly modified” in series [3]. Also, the entries for the “Animals alive, % of initial” value in series [2] (life span 10 days), in series [2] (life span 15 days) and in series [2] (life span 18 days) were 96 % of initial, 17 % of initial and 0 % of initial, respectively.

`N=C(N)NCCC[C@H](N)C(=O)O` [L-arginine, reference compound]: the “effect on C. elegans survival” value in series [2] was “little effect”.

As to `NC(=O)c1cccnc1` [nicotinamide, reference compound], the “wheat seed germination, percentage of the seeds having a sprout” value in series [4] (day 0) is on record as 0%; in series [4] (day 1), 0%; in series [4] (day 2), 4%; in series [4] (day 3), 10%; in series [4] (day 4), 60%. In series [2], the “effect on C. elegans survival” value was “little effect”.

Turning to `OC[C@H]1O[C@@H]2O[C@H]3[C@H](O)[C@@H](O)[C@@H](O[C@H]4[C@H](O)[C@@H](O)[C@@H](O[C@H]5[C@H](O)[C@@H](O)[C@@H](O[C@H]6[C@H](O)[C@@H](O)[C@@H](O[C@H]7[C@H](O)[C@@H](O)[C@@H](O[C@H]8[C@H](O)[C@@H](O)[C@@H](O[C@H]1[C@H](O)[C@H]2O)O[C@@H]8CO)O[C@@H]7CO)O[C@@H]6CO)O[C@@H]5CO)O[C@@H]4CO)O[C@@H]3CO` [β-Cyclodextrin, β-cyclodextrin], the “Animals alive, % of initial” value is 100 % of initial in series [2] (life span 10 days), 18 % of initial in series [2] (life span 15 days) and 0 % of initial in series [2] (life span 18 days).

As for carboxymethyl-β-cyclodextrin, the “water-bond interactions” value in series [1] (1200-1500 nm) is recorded as “further significantly modified”; in series [1] (1620-1710 nm) it was “significantly modified”; in series [1] (2170-2370 nm), “significantly modified”; in series [3], “further significantly modified”. In addition, the results for the “Animals alive, % of initial” value in series [2] (life span 10 days), in series [2] (life span 15 days) and in series [2] (life span 18 days) were 94 % of initial, 11 % of initial and 0 % of initial, respectively.
